{"source": "patent US20070212449A1", "about": "“Reduction of the titratable acidity and the prevention of tooth and other bone degeneration” (priority 2006, published 2007)", "key": {"[1]": {"tested_on": "MG-63 osteoblast cells", "assay": "MTT-based proliferation assay, osteoblast cells", "assay_type": "cell-based, human", "procedure": "(§1) Human osteoblast MG-63 cells and HS-883 osteoclast cells were treated with IP6 in vitro and their abilities to proliferate and differentiate were evaluated by MTT-based cytotoxicity assay (for proliferation) and alkaline phosphatase (ALP) and matrixmetalloproteinase-2 (MMP-2), activity for differentiation of bone cells.\n(§2) In an additional study, osteoblast MG-63 human osteosarcoma cells and osteoclast HS-883.T human bone giant sarcoma cells were cultured in Eagle's Minimum Essential Medium, in Eagle's Balanced Salt Solution with non-essential amino-acids and Dulbecco's Modified Eagles Medium, respectively. Both media were supplemented with 10% fetal bovine serum (FBS) and L-glutamine. Additionally, 1 mM of sodium pyruvate was added to culture media for MG-63 cells.\n(§3) Stock solution of 100 mM Na-IP6 was prepared in distilled water, pH adjusted to 7.4, and diluted as needed in culture media.\n(§4) Cell growth and proliferation were determined with the MTT-based cytotoxicity assay. Briefly, the MG-63 and HS-883.T cell lines were seeded into 96-well plates at a density 2000 cells per well. […] Cells were allowed to proliferate for 24 or 72 hours. 100 μL of MTT solution at concentration I mg/ml was added at the end of proliferation period to each well and allowed to incubate for 4 hours. The formazan product of MTT reduction was dissolved by adding 150 μL of DMSO. Immediately after, growth changes were evaluated by recording the reduction of MTT at 540 nm in a plate reader using data reduction software for measurement of optical density."}, "[2]": {"tested_on": "HS-883 osteoclast cells", "assay": "MTT-based proliferation assay, osteoclast cells", "assay_type": "cell-based, human", "procedure": "as §1, §2, §3, §4"}, "[3]": {"assay": "Effect of IP6 and inositol additions on % TA of soft drinks", "assay_type": "physicochemical", "procedure": "Titratable (total) acidity measures the total or potential acidity and indicates the total number of acid molecules, whereas a pH measurement represents the hydrogen ion concentration. The titratable acidity (as % citric acid) is calculated by titrating the beverage against sodium hydroxide (NaOH) solution to pH 8.2 and using the following relationship: [formula] in accordance with the standard procedures for determining the titratable acidity of a variety of fluids, including milk."}, "[4]": {"tested_on": "matrix metalloproteinase-2 (MMP-2)", "assay": "MMP-2 (gelatinase A) zymography, culture media of osteoblast cells", "assay_type": "cell-based, human", "conditions": "for activity of gelatinase A in culture media: osteoblast cells", "procedure": "(§5) Human osteoblast MG-63 cells and HS-883 osteoclast cells were treated with IP6 in vitro and their abilities to proliferate and differentiate were evaluated by MTT-based cytotoxicity assay (for proliferation) and alkaline phosphatase (ALP) and matrixmetalloproteinase-2 (MMP-2), activity for differentiation of bone cells. IP6 activates ALP and MMP-2 expression in osteoblast cells, indicating their better ability to lay new bone.\n(§6) To study the osteoblast and osteoclast differentiation in the presence of IP6, the following markers were evaluated: alkaline phosphatase (ALP), matrix metalloproteinase-2 (MMP-2) and tartrate-resistant acid phosphatase (TRAP).\n(§7) To evaluate MMPs activity in culture medium zymography was performed. Cells were plated in tissue culture dishes, allowed to grow to 60 -70% confluence and then were treated with different concentrations of IP6 in serum free media. After 48 hours conditioned media was collected and immediately analyzed for matrix metalloproteinase activity. 10% Polyacrilamide gels were used to perform electrophoresis, following which gels were incubated in renaturating buffer for 30 minutes with gentle agitation. Incubation was continued in developing buffer overnight at 37° C. At the end of incubation time gels were stained with Comassie blue staining solution for 10 minutes, rinsed with destaining solution one (9.2% acetic acid, 45.4% methanol) and incubated with destaining solution two (10% acetic acid and 10% methanol) at room temperature as needed. Proteinase activity was measured using UN-SCAN-IT gel digitizing software for Windows and expressed as percentage according to the amount of determined Pixel average for each band."}, "[5]": {"tested_on": "alkaline phosphatase (ALP)", "assay": "ALP activity in osteoblast cells (differentiation marker)", "assay_type": "cell-based, human", "conditions": "MG-63 cells", "procedure": "as §5, §6\nALP activity was measured using a commercially available kit. Osteoblast cells were plated in tissue culture dishes in amount of 4×10^5 cells per plate. […] Incubation was stopped on ice; cells were washed twice with PBS and lysed with 0.25% of Triton X-100. 25 μL of lysate was mixed with 2.5 mL of ALP sample buffer, incubated for 4 or 24 hours in room temperature and absorption was read in a plate reader at λ405 nm."}, "[6]": {"tested_on": "matrix metalloproteinase-2 (MMP-2)", "assay": "MMP-2 zymography, culture media of osteoclast cells", "assay_type": "cell-based, human", "conditions": "100 and 300 μM of IP6", "procedure": "as §6, §7"}, "[7]": {"assay": "Enamel dissolution (weight loss of enamel) in soft drinks with or without phytic acid", "parameters": "species or system human", "conditions": "for effect on enamel dissolution: addition of 1% phytic acid (FIG. 10)", "procedure": "For instance, studies were performed on sections of enamel removed from extracted human teeth as well as on extracted human teeth that were coated such that only the crown of the tooth (the enamel portion) was exposed to the beverage. […] These enamel specimens were immersed in the various soft drinks with or without additions of 0.5 and 1.0% by weight of dodecasodium salt of phytic acid (Inositol hexaphosphoric acid). The enamel dissolution was determined as the weight loss of the enamel at different time intervals in the untreated and treated beverages, as shown in FIGS. 7 and 8."}}, "data": [{"molecule": "C[C@]12CCC(=O)C=C1CC[C@@H]1[C@@H]2[C@@H](O)C[C@@]2(C)[C@H]1CC[C@]2(O)C(=O)CO", "note": "[Hydrocortisone, hydrocortisone, reference compound]", "values": [{"measurement": "reduction of the number of osteoblast cells", "setting": "[1]; 10 μM hydrocortisone, p < 0.05", "value": 30.5, "unit": "%"}]}, {"molecule": "O=P(O)(O)O[C@H]1[C@H](OP(=O)(O)O)[C@@H](OP(=O)(O)O)[C@H](OP(=O)(O)O)[C@@H](OP(=O)(O)O)[C@H]1OP(=O)(O)O", "note": "[IP6, inositol hexaphosphate]", "values": [{"measurement": "absorbance at 540 nm (MTT), mean ± SD", "setting": "[2]; 300 μM Na-IP6 + 70 μM inositol with 10 μM hydrocortisone", "value": "0.45 ± 0.02"}, {"measurement": "absorbance at 540 nm (MTT), mean ± SD", "setting": "[2]; 300 μM Na-IP6 + 70 μM inositol, no hydrocortisone (control 0.52 ± 0.01)", "value": "0.34 ± 0.02"}, {"measurement": "proliferation of osteoclast cells", "setting": "[2]; in vitro IP6 treatment", "value": "suppresses the proliferation"}, {"measurement": "absorbance at 540 nM (MTT), mean ± SD", "setting": "[1]; Na-IP6 50 μM + 70 μM inositol with 10 μM hydrocortisone", "value": "1.73 ± 0.03"}, {"measurement": "absorbance at 540 nM (MTT), mean ± SD", "setting": "[1]; Na-IP6 50 μM + 70 μM inositol, no hydrocortisone (control 1.54 ± 0.12)", "value": "1.69 ± 0.09"}, {"measurement": "effect on hydrocortisone suppression of osteoblast growth/proliferation", "setting": "[1]; with 10 μM hydrocortisone, 50-300 μM sodium salt of IP6 and 70 μM inositol", "value": "opposes the negative effect of hydrocortisone"}, {"measurement": "effect on titratable acidity", "setting": "[3]; Fresca, 0.5% addition (FIG. 9)", "value": "reduction in titratable acidity"}, {"measurement": "effect on titratable acidity", "setting": "[3]; Mountain Dew, 1.0% addition (FIG. 9)", "value": "reduction in titratable acidity"}, {"measurement": "effect on titratable acidity", "setting": "[3]; Sprite, 0.5% addition (FIG. 9)", "value": "reduction in titratable acidity"}, {"measurement": "MMP-2 expression in osteoblast cells", "setting": "[4]; MG-63 cells", "value": "activates"}, {"measurement": "activity of gelatinase A in culture media", "setting": "[4]; 300 μM of IP6", "value": "Significant increase of activity"}, {"measurement": "activity of gelatinase A in culture media", "setting": "[4]; IP6 50 to 300 μM, 48 hours", "value": "increased the activity of gelatinase A"}, {"measurement": "ALP activity/expression in osteoblast cells", "setting": "[5]", "value": "activates"}, {"measurement": "pro-MMP-2 and MMP-2 activity", "setting": "[6]", "value": "decrease"}, {"measurement": "effect on enamel dissolution", "setting": "[7]; 5% lemon juice", "value": "reduction in enamel dissolution"}, {"measurement": "effect on enamel erosivity", "setting": "[7]; Mountain Dew beverage (FIG. 7)", "value": "reducing enamel erosivity"}, {"measurement": "effect on enamel dissolution", "setting": "[7]; Mountain Dew", "value": "reduction in enamel dissolution"}, {"measurement": "effect on enamel erosivity", "setting": "[7]; Red Bull beverage (FIG. 8)", "value": "reducing enamel erosivity"}]}, {"molecule": "O=P([O-])([O-])O[C@H]1[C@H](OP(=O)([O-])O)[C@H](OP(=O)([O-])[O-])[C@H](OP(=O)([O-])O)[C@@H](OP(=O)([O-])[O-])[C@@H]1OP(=O)([O-])O.[Na+].[Na+].[Na+].[Na+].[Na+].[Na+].[Na+].[Na+].[Na+]", "note": "[Na-IP6, dodecasodium inositol hexaphosphate]", "values": [{"measurement": "% TA", "setting": "[3]; Fresca, after addition of 0.5 g Ca-Mg IP6 + Inositol or 1 g Na-IP6 (beverage alone 0.46)", "value": 0.0, "unit": "%"}, {"measurement": "% TA", "setting": "[3]; Red Bull, after addition of 0.5 g Ca-Mg IP6 + Inositol or 1 g Na-IP6 (beverage alone 1.04)", "value": 0.22, "unit": "%"}]}]}
